The source of these data is PubChem BioAssay AID652187 (Sanford-Burnham Center for Chemical Genomics, 2013).

Activity calls are given as the source filed them.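 How the source made its calls: active means IC50 of 25 µM or lower, counted as toxic to worms; inactive means the rest.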

The subject of this data set is C. elegans VP596 worms, composite health score, 20-22 h. As to the kind of experiment: C. elegans worm health toxicity scoring, SAR follow-up, cytotoxicity control for SKN-1 inhibitor project, whole organism, strain VP596, composite health score, round 1 (AID 652187).
Turning to `Fc1ccc(-c2csc(-c3ccncc3)n2)cc1`, the IC50 was > 64 µM (inactive).

`COc1cc(CNC2CCCC2)cc(Cl)c1OCc1ccc(F)cc1`: the IC50 is > 64 µM (inactive).

As for `Fc1ccc(COc2ccc(CNC3CCCC3)cc2Cl)cc1`, the IC50 was > 64 µM (inactive).

In the case of `Clc1ccc(-c2csc(-c3cccnc3)n2)cc1`, the IC50 was > 64 µM (inactive).

As to `COc1ccc(-c2csc(-c3cccnc3)n2)cc1`, the IC50 was > 64 µM (inactive).

Consider `CCOc1cc(CNC2CCCCC2)cc(Cl)c1OCc1ccc(F)cc1`, for which the IC50 was > 64 µM (inactive).

Turning to `COc1ccc(-c2csc(-c3ccncc3)n2)cc1`, the IC50 is > 64 µM (inactive).

As to `CCOc1cc(CNC2CCCC2)cc(Cl)c1OCc1cccc(F)c1`, the IC50 is > 64 µM (inactive).

Regarding `CCOc1cc(CNC2CCCC2)cc(Cl)c1OCc1ccc(Cl)cc1`, the IC50 is > 64 µM (inactive).

In the case of `CCOc1cc(CNC2CCCC2)cc(Cl)c1OCc1ccccc1Cl`, the IC50 was > 64 µM (inactive).

On to `CCOc1cc(CNCc2ccccc2)cc(Cl)c1OCc1ccc(F)cc1`, for which the IC50 is > 64 µM (inactive).

With `Cc1ccc(-c2csc(-c3cccnc3)n2)cc1`, the IC50 was 61.1 µM (inactive).

For `Cc1ccc(-c2csc(-c3ccncc3)n2)cc1`, the IC50 is > 64 µM (inactive).

On to `CCOc1cc(C(=O)NC2CCCC2)cc(Cl)c1OCc1ccc(F)cc1`, for which the IC50 was > 64 µM (inactive).

With `CCOc1cc(CNC2CCC2)cc(Cl)c1OCc1ccc(F)cc1`, the IC50 is > 64 µM (inactive).

Consider `CCOc1cc(CNC2CCCC2)cc(Cl)c1OCc1ccc(OC)cc1`, for which the IC50 was > 64 µM (inactive).

Turning to `Fc1ccc(-c2csc(-c3cccnc3)n2)cc1`, the IC50 was > 64 µM (inactive).

On to `CCOc1cc(CNC(C)C)cc(Cl)c1OCc1ccc(F)cc1`, for which the IC50 is > 64 µM (inactive).

Consider `CCOc1cc(CNC2CC2)cc(Cl)c1OCc1ccc(F)cc1`, for which the IC50 is > 64 µM (inactive).

Regarding `CCOc1cc(CNC2CCCC2)cc(Cl)c1OC`, the IC50 was > 64 µM (inactive).

With `CCOc1cc(CNC2CCCC2)ccc1OCc1ccc(F)cc1`, the IC50 was > 64 µM (inactive).

On to `c1ccc(-c2csc(-c3ccncc3)n2)cc1`, for which the IC50 was > 64 µM (inactive).

Take `Clc1ccc(-c2csc(-c3ccncc3)n2)cc1`: the IC50 is < 64 µM (inactive).

On to `CCOc1cc(CNc2ccccc2)cc(Cl)c1OCc1ccc(F)cc1`, for which the IC50 is > 64 µM (inactive).

Consider `CCOc1cc(CNC2CCCC2)cc(Cl)c1OCc1ccccc1F`, for which the IC50 was > 64 µM (inactive).

In the case of `c1ccc(-c2csc(-c3cccnc3)n2)cc1`, the IC50 was 63.3 µM (inactive).

`CCOc1cc(CNC2CCCC2)cc(Cl)c1OCc1ccc(F)cc1`: the IC50 was > 64 µM (inactive).

For the molecule `CCOc1cc(CNC2CCCC2)cc(Cl)c1OCc1ccc(C)cc1`, the IC50 was > 64 µM (inactive).
